Read-outs that look alike come from different tables or passages of the source.
How the values were obtained:
[1] = system: cultured human mast cells (CHMC); assay: CHMC low cell density IgE activation: tryptase assay; assay type: cell-based; details: anti-IgE stimulated, tryptase release, first symbol of cell
Experimental: Inhibition of degranulation was measured at both low and high cell density by quantifying the release of the granule specific factors tryptase, histamine and hexosaminidase. Inhibition of release and/or synthesis of lipid mediators was assessed by measuring the release of leukotriene LTC4 and inhibition of release and/or synthesis of cytokines was monitored by quantifying TNF-α, IL-6 and IL-13. Tryptase and hexosaminidase were quantified using fluorogenic substrates as described in their respective examples. Histamine, TNFα, IL-6, IL-13 and LTC4 were quantified using the following commercial ELISA kits: histamine (Immunotech #2015, Beckman Coulter), TNFα (Biosource #KHC3011), IL-6 (Biosource #KMC0061), IL-13 (Biosource #KHC0132) and LTC4 (Cayman Chemical #520211). The protocols of the various assays are provided below.
7.7.2 CHMC Low Cell Density IgE Activation: Tryptase and LTC4 Assays
To duplicate 96-well U-bottom plates (Costar 3799) add 65 ul of compound dilutions or control samples that have been prepared in MT [137 mM NaCl, 2.7 mM KCl, 1.8 mM CaCl2, 1.0 mM MgCl2, 5.6 mM Glucose, 20 mM Hepes (pH 7.4), 0.1% Bovine Serum Albumin, (Sigma A4503)] containing 2% MeOH and 1% DMSO. Pellet CHMC cells (980 rpm, 10 min) and resuspend in pre-warmed MT. Add 65 ul of cells to each 96-well plate. Depending on the degranulation activity for each particular CHMC donor, load 1000-1500 cells/well. Mix four times followed by a 1 hr incubation at 37° C. During the 1 hr incubation, prepare 6× anti-IgE solution [rabbit anti-human IgE (1 mg/ml, Bethyl Laboratories A80-109A) diluted 1:167 in MT buffer]. Stimulate cells by adding 25 ul of 6× anti-IgE solution to the appropriate plates. Add 25 ul MT to un-stimulated control wells. Mix twice following addition of the anti-IgE. Incubate at 37° C. for 30 minutes. During the 30 minute incubation, dilute the 20 mM tryptase substrate stock solution [(Z-Ala-Lys-Arg-AMC2TFA; Enzyme Systems Products, #AMC-246)] 1:2000 in tryptase assay buffer [0.1 M Hepes (pH 7.5), 10% w/v Glycerol, 10 uM Heparin (Sigma H-4898) 0.01% NaN3]. Spin plates at 1000 rpm for 10 min to pellet cells. Transfer 25 ul of supernatant to a 96-well black bottom plate and add 100 ul of freshly diluted tryptase substrate solution to each well. Incubate plates at room temperature for 30 min. Read the […] of the plates at 355 nm/460 nm on a spectrophotometric plate reader.

[2] = system: cultured human mast cells (CHMC); assay: CHMC low cell density ionomycin activation: tryptase assay; assay type: cell-based; details: ionomycin stimulated, tryptase release
Experimental: To confirm that many of the quinoline compounds of the invention exert their inhibitory activity by blocking or inhibiting the early IgE receptor signal transduction cascade, many of the compounds were tested in cellular assays for ionomycin-induced degranulation, as described below.
7.8.1 CHMC Low Cell Density Ionomycin Activation: Tryptase Assay
Assays for ionomycin-induced mast cell degranulation were carried out as described for the CHMC Low Density IgE Activation assays (Section 7.7.2, supra), with the exception that during the 1 hour incubation, 6× ionomycin solution [5 mM ionomycin (Signma 1-0634) in MeOH (stock) diluted 1:416.7 in MT buffer ([…])] was prepared and cells were stimulated by adding 25 μl of the 6× ionomycin solution to the appropriate plates.

[3] = system: mouse model of passive cutaneous anaphylaxis (PCA); details: i.p., 30 minutes pretreatment time
Experimental: This model provides a direct measure of IgE-induced degranulation of tissue mast cells. In this model, IgE primed animals are exposed to an allergen challenge and the change in permeability of dermal vasculature that results from histamine release from mast cells is measured by change in the amount of dye leakage into surrounding tissue. Inhibition of mediator release by compounds that modulate mast cell degranulation is easily measured by extracting the dye from the tissue.
In the PCA assay mice are passively sensitized by intradermal injection with anti-dinitrophenol (DNP) IgE antibodies (Day-1). At predetermined times (5-60 minutes prior to challenge), animals are treated with the test agent (Day 0). The modulatory effect of the agent on cutaneous mast cell degranulation is measured following intravenous injection of DNP conjugated to human serum albumin (HSA-DNP), together with Evans blue dye. The resulting cross-linking of the IgE receptor and subsequent mast cell degranulation-induced increase in vascular permeability is determined by measuring the amount of dye extravasation into the tissue. Dye is extracted from the tissue by formamide, and the absorbance of this extract is read at 620 nm. The inhibitory effect of drug treatment is reported as the percent inhibition compared to vehicle treatment, that is, the percent reduction in A620. […]

[4] = second symbol of cell, read-out: CHMC -IONO
[5] = Homo sapiens, Mast cell, second symbol of cell, read-out: CHMC -IONO

IC50 [1]	IC50 [2, 4]	SMILES	other results
> 10 µM	> 10 µM	Cc1noc(C)c1C(=O)Nc1ccnc2cc(C(F)(F)F)ccc12 [Compound 37]	–
–	–	CN1CCC(=C2c3ccccc3C=Cc3ccccc32)CC1 [Cyproheptadine, cyproheptadine]	inhibition of the PCA response ([3]; 8 mg/kg, n=23 experiments): 61% +/−4
≤ 10 µM	≤ 10 µM	Cc1onc(-c2ccccc2)c1C(=O)Oc1ccnc2ccccc12 [Compound 5]	–
≤ 10 µM	≤ 10 µM	CCOC(=O)c1cnc2cc(C(F)(F)F)ccc2c1OC(=O)c1c(-c2ccccc2)noc1C [Compound 17]	–
≤ 10 µM	≤ 10 µM	CCOC(=O)c1cc(OC(=O)c2c(-c3ccccc3)noc2C)c2ccccc2n1 [Compound 19]	–
≤ 10 µM	≤ 10 µM	Cc1onc(-c2ccccc2)c1C(=O)Oc1ccnc2cc(C(F)(F)F)ccc12 [Compound 13]	–
≤ 10 µM	> 10 µM	Cc1cc(C(=O)Nc2c(C)noc2C)c2cc(F)ccc2n1 [Compound 49]	–
≤ 10 µM	≤ 10 µM	Cc1cc(OC(=O)c2c(-c3ccccc3)noc2C)c2cc(F)ccc2n1 [Compound 11]	–
–	–	Cc1onc(-c2ccccc2)c1NC(=O)c1cc(Nc2cccc(O)c2)nc2ccc(Br)cc12 [Compound 71, 6-Bromo-2-(3-hydroxyphenyl)amino-N-(5-methyl-3-phenylisoxazol-4-yl)-4-quinolinecarboxamide]	IC50 ([1]; Homo sapiens, Mast cell): ≤ 10 µM; IC50 [2, 5]: ≤ 10 µM
> 10 µM	> 10 µM	Cc1onc(-c2ccccc2)c1NC(=O)c1ccnc2ccccc12 [Compound 63]	–
≤ 10 µM	≤ 10 µM	Cc1onc(-c2ccccc2)c1C(=O)Oc1cc(C(F)(F)F)nc2ccc(OC(F)(F)F)cc12 [Compound 27]	–
≤ 10 µM	–	Cc1onc(-c2ccccc2)c1C(=O)Oc1ccnc2c(C(F)(F)F)cccc12 [Compound 15]	–
≤ 10 µM	> 10 µM	Cc1noc(C)c1NC(=O)c1cc(Cl)nc2ccc(Br)cc12 [Compound 45]	–
–	–	CN(C)CCOC(c1ccccc1)c1ccccc1 [diphenhydramine]	inhibition of the PCA response ([3]; highest dose 50 mg/kg): up to 86%
≤ 10 µM	≤ 10 µM	Cc1onc(-c2ccccc2)c1C(=O)Oc1ccnc2cc(Cl)ccc12 [Compound 7]	–
≤ 10 µM	–	Cc1cc(OC(=O)c2c(C)noc2C)c2cc(F)ccc2n1 [Compound 21]	–
> 10 µM	> 10 µM	Cc1noc(C)c1NC(=O)c1cc(-c2ccccc2)nc2ccccc12 [Compound 1]	–
–	–	Cc1cc(C(=O)Nc2c(-c3ccccc3)noc2C)c2cc(F)ccc2n1 [Compound 47, 6-Fluoro-2-methyl-N-(5-methyl-3-phenylisoxazol-4-yl)-4-quinolinecarboxamide]	IC50 ([1]; Homo sapiens, Mast cell): ≤ 10 µM; IC50 [2, 5]: > 10 µM
≤ 10 µM	> 10 µM	CNc1cc(NC(=O)c2c(-c3ccccc3)noc2C)c2cc(Br)ccc2n1 [Compound 67]	–
≤ 10 µM	≤ 10 µM	Cc1noc(C)c1C(=O)Oc1cc(C(F)(F)F)nc2ccc(OC(F)(F)F)cc12 [Compound 29]	–
≤ 10 µM	≤ 10 µM	Cc1onc(-c2ccccc2)c1C(=O)Oc1ccnc2ccc(OC(F)(F)F)cc12 [Compound 51]	–
–	–	Cc1cc(OC(=O)c2c(-c3ccccc3)noc2C)c2ccccc2n1 [Compound 9, 5-Methyl-3-phenyl-4-isoxazolecarboxylic acid, 2-methyl-4-quinolinyl Ester]	IC50 ([1]; Homo sapiens, Mast cell): ≤ 10 µM; IC50 [2, 5]: ≤ 10 µM
–	–	Cc1onc(-c2ccccc2)c1C(=O)Nc1ccnc2cc(C(F)(F)F)ccc12 [Compound 35, 5-Methyl-3-phenyl-N-(7-trifluoromethyl-4-quinolinyl)-4-isoxazolecarboxamide]	IC50 ([1]; Homo sapiens, Mast cell): ≤ 10 µM; IC50 [2, 5]: ≤ 10 µM
> 10 µM	> 10 µM	Cc1onc(-c2ccccc2)c1NC(=O)c1cc(-c2ccccc2)nc2ccccc12 [Compound 61]	–
–	–	Cc1onc(-c2ccccc2)c1NC(=O)c1cc(Cl)nc2ccc(Br)cc12 [Compound 43, 6-bromo-2-chloro-N-(5-methyl-3-phenylisoxazol-4-yl)-4-quinolinecarboxamide]	IC50 ([1]; Homo sapiens, Mast cell): ≤ 10 µM; IC50 [2, 5]: > 10 µM
≤ 10 µM	> 10 µM	Cc1onc(-c2ccccc2)c1NC(=O)c1cc(Nc2ccc3[nH]ccc3c2)nc2ccc(Br)cc12 [Compound 65]	–

SMILES	IC50 [1]	IC50 [2, 4]	other results
Cc1onc(-c2ccccc2Cl)c1C(=O)Nc1ccnc2cc(C(F)(F)F)ccc12 [Compound 41]	> 10 µM	> 10 µM	–
Cc1cc(OC(=O)c2c(-c3ccccc3Cl)noc2C)c2cc(F)ccc2n1 [Compound 25]	≤ 10 µM	≤ 10 µM	–
Cc1onc(-c2c(F)cccc2Cl)c1C(=O)Oc1ccnc2ccc(OC(F)(F)F)cc12 [Compound 57]	≤ 10 µM	> 10 µM	–
Cc1onc(-c2ccccc2Cl)c1C(=O)Oc1cc(C(F)(F)F)nc2ccc(OC(F)(F)F)cc12 [Compound 33]	≤ 10 µM	–	–
Cc1cc(OC(=O)c2c(-c3c(F)cccc3Cl)noc2C)c2cc(F)ccc2n1 [Compound 23]	≤ 10 µM	–	–
Cc1cc(NC(=O)c2c(-c3ccccc3)noc2C)c2ccccc2n1 [Compound 3]	> 10 µM	–	–
Cc1onc(-c2c(F)cccc2Cl)c1C(=O)Nc1ccnc2cc(C(F)(F)F)ccc12 [Compound 39]	≤ 10 µM	–	IC50 ([2]; read-out: CHMC -IONO (number printed instead of class symbol)): 30 µM
Cc1onc(-c2c(F)cccc2Cl)c1C(=O)Oc1cc(C(F)(F)F)nc2ccc(OC(F)(F)F)cc12 [Compound 31]	≤ 10 µM	≤ 10 µM	–
Cc1onc(-c2ccccc2Cl)c1C(=O)Oc1ccnc2ccc(OC(F)(F)F)cc12 [Compound 53]	≤ 10 µM	≤ 10 µM	–

— patent publication US8008501B2, “Quinoline compounds and their uses” (Rigel Pharmaceuticals, Inc., priority 2003, dated 2011)
